Assay results reported in patent US20040152739A1, “Acyclic pyrazole compounds for the inhibition of mitogen activated protein kinase-activated protein kinase-2” (priority 2002, published 2004).
Counter-ions that a name gives are not always drawn.

Target: MK-2 (Homo sapiens, UniProt P49137)
Assay: Determination of MK-2 IC50 (anion exchange resin capture assay, HSP-peptide phosphorylation)
Format: biochemical
Conditions: read-out: MK-2 Avg. IC50
Protocol: The phosphorylation of HSP-peptide ([sequence]) by MAPKAPK2 was measured using an anion exchange resin capture assay method. […] The reaction was terminated and [γ^33P]ATP was removed from solution by the addition of 150 μl of AG 1×8 ion exchange resin in 900 mM sodium formate pH 3.0. A 50 μl aliquot of head volume was removed from the quenched reaction mixture and added to a 96-well plate, 150 μl of Microscint-40 (Packard) was added and the amount of phosphorylated-peptide was determined. Allow the Microscint to sit in the plates for 60 minutes prior to counting.
Compounds are evaluated as potential inhibitors of the MK2 kinase by measuring their effects on MK2 phosphorylation of the peptide substrate. Compounds may be screened initially at two concentrations prior to determination of IC50 values. Screening results are expressed as percent inhibition at the concentrations of compound tested. For IC50 value determinations, compounds are tested at six concentrations in ten-fold serial dilutions with each concentration tested in triplicate. Results are expressed as IC50 values in micromolar. The assay is performed at a final concentration of 2% DMSO.
Compounds are evaluated as potential inhibitors of the MK-2 kinase by measuring their effects on MK-2 phosphorylation of the peptide substrate. Compounds may be screened initially at two concentrations prior to determination of IC50 values. Screening results are expressed as percent inhibition at the concentrations of compound tested. For IC50 value determinations, compounds are tested at six concentrations in ten-fold serial dilutions with each concentration tested in triplicate. Results are expressed as IC50 values in micromolar. The assay is performed at a final concentration of 2% DMSO.

Chain of MK-2 (P49137 whole entry, species assumed): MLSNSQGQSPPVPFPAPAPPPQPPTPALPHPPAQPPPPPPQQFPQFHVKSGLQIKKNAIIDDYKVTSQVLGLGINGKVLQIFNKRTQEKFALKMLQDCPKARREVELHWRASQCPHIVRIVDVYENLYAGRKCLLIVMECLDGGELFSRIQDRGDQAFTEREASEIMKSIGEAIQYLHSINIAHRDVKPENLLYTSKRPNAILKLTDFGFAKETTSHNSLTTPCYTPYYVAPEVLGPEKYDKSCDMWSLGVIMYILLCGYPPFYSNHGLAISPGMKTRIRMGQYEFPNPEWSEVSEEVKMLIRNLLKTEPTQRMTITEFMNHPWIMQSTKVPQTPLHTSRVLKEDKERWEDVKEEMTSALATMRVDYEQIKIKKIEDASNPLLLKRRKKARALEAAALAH

Compound	IC50
O=C1NCCCn2nc(-c3ccncc3)cc21 [Example 122, 2-pyridin-4-yl-5,6,7,8-tetrahydro-4H-pyrazolo[1,5-a][1,4]diazepin-4-one]	10100 nM
2-[2-(2H-1,2,3-triazol-2-yl)pyridin-4-yl]-6,7- dihydropyrazolo[1,5-a]pyrazin-4(5H)-one compound with 2-[2-(1H-1,2,3-triazol-1- yl)pyridin-4-yl]-6,7-dihydropyrazolo[1,5- a]pyrazin-4(5H)-one (1:1) [Example 109]	5210 nM
O=C1NCCn2nc(-c3ccnc(-c4ccc(Cl)c(Cl)c4)c3)cc21 [Example 144, 2-[2-(3,4-dichlorophenyl)pyridin-4-yl]-6,7-dihydropyrazolo[1,5-a]pyrazin-4(5H)-one trifluoroacetate]	65500 nM
Cc1ccc(C(C)CCNCCn2nc(-c3ccncc3)cc2C(=O)O)o1 (stereo not drawn) [Example 134, 1-(2-{[3-(5-methyl-2-furyl)butyl]amino}ethyl)-3-pyridin-4-yl-1H-pyrazole-5-carboxylic acid trifluoroacetate]	27200 nM
CCOC(=O)c1cc(-c2ccnc(-c3cccc(OC)c3)c2)nn1CCN [Example 110, ethyl 1-(2-aminoethyl)-3-[2-(3-methoxyphenyl)pyridin-4-yl]-1H-pyrazole-5-carboxylate dihydrochloride]	5230 nM
O=C1NCCn2nc(-c3ccnc(-c4cccc(OCCN5CCNCC5)c4)c3)cc21 [Example 84]	2130 nM
O=C1NCCn2nc(-c3ccnc(Cl)c3)cc21 [Example 140, 2-(2-chloropyridin-4-yl)-6,7-dihydropyrazolo[1,5-a]pyrazin-4(5H)-one]	44800 nM
CCOC(=O)c1cc(-c2ccnc(-c3ccc(O)cc3)c2)nn1CCCN [Example 141, ethyl 1-(3-aminopropyl)-3-[2-(4-hydroxyphenyl)pyridin-4-yl]-1H-pyrazole-5-carboxylate hydrochloride]	47500 nM
O=C1NCCCn2nc(-c3ccnc(Cl)c3)cc21 [Example 145, 2-(2-chloropyridin-4-yl)-5,6,7,8-tetrahydro-4H-pyrazolo[1,5-a][1,4]diazepin-4-one]	80400 nM
CCOC(=O)c1cc(-c2ccncc2)nn1CCN [Example 133, ethyl 1-(2-aminoethyl)-3-pyridin-4-yl-1H-pyrazole-5-carboxylate dihydrochloride]	24500 nM
CN(C)Cc1cccc(-c2cc(-c3cc4n(n3)CCNC4=O)ccn2)c1 [Example 128, 2-(2-{3-[(dimethylamino)methyl]phenyl}pyridin-4-yl)-6,7-dihydropyrazolo[1,5-a]pyrazin-4(5H)-one trifluoroacetate]	15400 nM
O=C1NCCn2nc(-c3ccnc(-c4ccc(F)c(F)c4)c3)cc21 [Example 146, 2-[2-(3,4-difluorophenyl)pyridin-4-yl]-6,7-dihydropyrazolo[1,5-a]pyrazin-4(5H)-one trifluoroacetate]	88900 nM
O=C1NCCn2nc(-c3ccnc(-c4cccc(OCc5ccccc5)c4)c3)cc21 [Example 129, 2-{2-[3-(benzyloxy)phenyl]pyridin-4-yl}-6,7-dihydropyrazolo[1,5-a]pyrazin-4(5H)-one]	15500 nM
Cc1cnn(-c2cc(-c3cc4n(n3)CCCNC4=O)ccn2)c1 [Example 142, 2-[2-(4-methyl-1H-pyrazol-1-yl)pyridin-4-yl]-5,6,7,8-tetrahydro-4H-pyrazolo[1,5-a][1,4]diazepin-4-one trifluoroacetate]	53400 nM
CN(C)c1ccc(-c2cc(-c3cc4n(n3)CCCNC4=O)ccn2)cc1 [Example 100, 2-{2-[4-(dimethylamino)phenyl]pyridin-4-yl}-5,6,7,8-tetrahydro-4H-pyrazolo[1,5-a][1,4]diazepin-4-one trifluoroacetate]	3440 nM
COc1ccc(-c2cc(-c3cc4n(n3)CCCNC4=O)ccn2)cc1 [Example 60]	1090 nM
NCCCn1nc(-c2ccc(O)cc2)cc1C(=O)O [Example 119, 1-(3-aminopropyl)-3-(4-hydroxyphenyl)-1H-pyrazole-5-carboxylic acid dihydrochloride]	8110 nM
CC(C)NCc1cccc(-c2cc(-c3cc4n(n3)CCNC4=O)ccn2)c1 [Example 115, 2-(2-{3-[(isopropylamino)methyl]phenyl}pyridin-4-yl)-6,7-dihydropyrazolo[1,5-a]pyrazin-4(5H)-one]	6270 nM
NCCCn1nc(-c2ccnc(-c3cnc4ccccc4c3)c2)cc1C(N)=O [Example 124, 1-(3-aminopropyl)-3-(2-quinolin-3-ylpyridin-4-yl)-1H-pyrazole-5-carboxamide dihydrochloride]	10700 nM
CCOC(=O)c1cc(-c2ccnc(-c3ccc(CO)cc3)c2)nn1CCN [Example 96, trifluoroacetate]	3250 nM
O=C1NCCCn2nc(-c3ccnc(-c4cccc([N+](=O)[O-])c4)c3)cc21 [Example 66]	1260 nM
O=C1NCCCn2nc(-c3ccnc(-c4ccc(OC(F)(F)F)cc4)c3)cc21 [Example 148, 2-{2-[4-(trifluoromethoxy)phenyl]pyridin-4-yl}-5,6,7,8-tetrahydro-4H-pyrazolo[1,5-a][1,4]diazepin-4-one]	124000 nM

Continued, values first:

IC50	Compound
1560 nM	O=C1NCCn2nc(-c3ccnc(-c4ccc5c(c4)OCCO5)c3)cc21 [Example 76, trifluoroacetate]
1300 nM	Nc1cccc(-c2cc(-c3cc4n(n3)CCNC4=O)ccn2)c1 [Example 68]
371 nM	O=C1NCCn2nc(-c3ccnc(/C=C/c4ccccc4)c3)cc21 [Example 28]
2400 nM	CN(C)CCOc1cccc(-c2cc(-c3cc4n(n3)CCNC4=O)ccn2)c1 [Example 87]
2100 nM	CS(=O)(=O)c1cccc(-c2cc(-c3cc4n(n3)CCNC4=O)ccn2)c1 [Example 83, trifluoroacetate]
821 nM	CS(=O)(=O)c1ccc(-c2cc(-c3cc4n(n3)CCNC4=O)ccn2)cc1 [Example 48, dihydrochloride]
835 nM	O=C1NCCn2nc(-c3ccnc(-c4ccc5c(c4)CCCN5)c3)cc21 [Example 49, dihydrochloride]
2830 nM	Cc1cc2cc(-c3cc(-c4cc5n(n4)CCNC5=O)ccn3)ccc2[nH]1 [Example 92]
505 nM	O=C1NCCn2nc(-c3ccnc(-c4cccc(F)c4)c3)cc21 [Example 33, hydrochloride]
2600 nM	O=C1NCCn2nc(-c3ccncc3)cc21 [Example 88]
638 nM	O=C1NCCn2nc(-c3ccnc(-c4cccc(Cl)c4)c3)cc21 [Example 44, trifluoroacetate]
930 nM	O=C1NCCn2nc(-c3ccnc(-c4ccc5cc[nH]c5c4)c3)cc21 [Example 55, hydrochloride]
318 nM	COc1ccc(-c2cc(-c3cc4n(n3)CCNC4=O)ccn2)cc1 [Example 26, dihydrochloride]
39.7 nM	NCCCn1nc(-c2ccnc(-c3cccc([N+](=O)[O-])c3)c2)cc1C(=O)O [Example 2, dihydrochloride]
1690 nM	COc1cncc(-c2cc(-c3cc4n(n3)CCNC4=O)ccn2)c1 [Example 77, trifluoroacetate]
117 nM	CN(C)c1ccc(-c2cc(-c3cc(C(=O)O)n(CCN)n3)ccn2)cc1 [Example 10]
196 nM	COc1ccc(-c2cc(-c3cc(C(=O)O)n(CCCN)n3)ccn2)cc1 [Example 15, trifluoroacetate]
